Assay: Organ distribution of ^225Ac complexes following intravenous injection in mice
Assay type: in vivo, C57BL/6 mice
Method: In Vivo Biodistribution of ^225Ac Complexes of Macropa and DOTA. All experiments were approved by the Institutional Animal Care Committee (IACC) of the University of British Columbia and were performed in accordance with the Canadian Council on Animal Care Guidelines. A total of 9 female C57BL/6 mice (6-8 weeks old, 20-25 g) were used for the biodistribution study of each radiometal complex, n=3 for each time point.
Macropa (100 μL of a 1 mg/mL solution in NH4OAc) was diluted with 387 μL of NH4OAc (1 M, pH 7), and an aliquot (203 μL) of ^225Ac(NO3)3 (˜157 kBq) was then added; the pH of this solution was adjusted to 6.5-7 by the addition of 1 M NaOH (210 μL, trace metal grade). After 5 min at ambient temperature, the reaction solution was analyzed by TLC (0.4 M pH 4 sodium citrate as the eluent), which confirmed >95% radiochemical yield. The reaction was allowed to proceed overnight, and the radiochemical yield was again confirmed to be >95% the following morning. At this time, mice were anesthetized by 2% isoflurane, and approximately 100 μL (10-15 kBq) of the [^225Ac(macropa)]^+ complex were injected into the tail vein of each mouse. After injection, mice were allowed to recover and roam freely in their cages, and were euthanized by CO2 inhalation at 15 min, 1 h, or 5 h (n=3 at each time point) post-injection. Blood was collected by cardiac puncture and placed into an appropriate test tube for scintillation counting. Tissues collected included heart, liver, kidneys, lungs, small intestine, large intestine, brain, bladder, spleen, stomach, pancreas, bone, thyroid, tail, urine, and feces. Tissues were weighed and then counted with a calibrated gamma counter (Packard, Cobra II model 5002) using three energy windows: 60-120 keV (window A), 180-260 keV (window B), and 400-480 keV (window C). Counting was performed both immediately after sacrifice and after 7 days; counts were decay corrected from the time of injection and then converted to the percentage of injected dose (% ID) per gram of tissue (% ID/g). […]
The biodistribution studies of [^225Ac(DOTA)]^− and ^225Ac(NO3)3 were carried out as described above for [^225Ac(macropa)]^+, with the following modifications. [^225Ac(DOTA)^− was prepared by adding ^225Ac(NO3)3 (338 μL, 1.1 MBq) to a solution of DOTA (100 μg, 20 mg/mL in H2O) in NH4OAc (467 μL, 0.15 M, pH 7). The pH of the solution was adjusted to 7 using NH4OAc (150 μL, 1 M, pH 7) and the solution was heated at 85° C. for 45 min. RCY >99% was confirmed by TLC as described above. [^225Ac(DOTA)]^− was diluted with saline to a final concentration of 0.05 MBq/100 μL, and 100 μL were injected into each mouse. ^225Ac(NO3)3 (˜58 μL, 0.4 MBq) was diluted and injected in the same manner as [^225Ac(DOTA)]^−. One mouse that was to be euthanized at the 5 h time point in the [^225Ac(DOTA)]^− study died shortly after injection. In the same manner, one mouse that was to be euthanized at the 1 h time point in the ^225Ac(NO3)3 study died.
The in vivo stability [^225Ac(macropa)]^+ was examined by comparing its biodistribution to those of ^225Ac(NO3)3 and [^225Ac(DOTA)]^−. C57BL/6 mice were injected via tail vein with 10-50 kBq of each radiometal complex and were sacrificed after 15 min, 1 h, or 5 h. The amount of ^225Ac retained in each organ was quantified by gamma counting and reported as the percent of injected dose per gram of tissue (% ID/g). The results of these studies are compiled in Tables 1-3. Inadequate stability of an ^225Ac complex leading to the loss of radioisotope in vivo is manifested by the accumulation of ^225Ac in the liver, spleen, and bone of mice.^[11,12,32] […] The biodistribution profile of [^225Ac(macropa)]^+ (FIG. 3B) differs markedly from that of ^225Ac(NO3)3. […] Its biodistribution profile was similar to that of [^225Ac(DOTA)]^− (FIG. 3C), which has been previously shown to retain ^225Ac^3+ in vivo.^[7]

[1] = 15 min post i.v. injection, energy window A (60-120 keV)
[2] = 15 min post i.v. injection, energy window B (180-260 keV)
[3] = 15 min post i.v. injection, energy window C (400-480 keV)
[4] = 1 h post i.v. injection, energy window A (60-120 keV)
[5] = 1 h post i.v. injection, energy window B (180-260 keV)
[6] = 1 h post i.v. injection, energy window C (400-480 keV)
[7] = 5 h post i.v. injection, energy window A (60-120 keV)
[8] = 5 h post i.v. injection, energy window B (180-260 keV)
[9] = 5 h post i.v. injection, energy window C (400-480 keV)
[10] = C57BL/6 mice, i.v., 15 min to 5 h

## O=[N+]([O-])[O-].O=[N+]([O-])[O-].O=[N+]([O-])[O-].[225Ac] [^225Ac(NO3)3]
[1]
  Organ distribution: bladder: 1.477 % ID/g
  Organ distribution: blood: 40.966 % ID/g
  Organ distribution: bone (femur + joint): 2.764 % ID/g
  Organ distribution: brain: 0.614 % ID/g
  Organ distribution: feces: 0.240 % ID/g
  Organ distribution: heart: 8.557 % ID/g
  Organ distribution: kidneys: 10.468 % ID/g
  Organ distribution: large intestines: 1.116 % ID/g
  Organ distribution: liver: 22.899 % ID/g
  Organ distribution: lungs: 12.757 % ID/g
  Organ distribution: pancreas: 2.366 % ID/g
  Organ distribution: small intestines: 2.002 % ID/g
  Organ distribution: spleen: 22.733 % ID/g
  Organ distribution: stomach: 2.348 % ID/g
  Organ distribution: tail: 7.459 % ID/g
  Organ distribution: thyroids: 4.391 % ID/g
  Organ distribution: urine: 5.527 % ID/g
[2]
  Organ distribution: bladder: 1.6996 % ID/g
  Organ distribution: blood: 41.5628 % ID/g
  Organ distribution: bone (femur + joint): 2.7487 % ID/g
  Organ distribution: brain: 0.6536 % ID/g
  Organ distribution: feces: 0.3857 % ID/g
  Organ distribution: heart: 8.3605 % ID/g
  Organ distribution: kidneys: 9.6424 % ID/g
  Organ distribution: large intestines: 1.1570 % ID/g
  Organ distribution: liver: 23.6091 % ID/g
  Organ distribution: lungs: 12.9714 % ID/g
  Organ distribution: pancreas: 2.2821 % ID/g
  Organ distribution: small intestines: 1.9641 % ID/g
  Organ distribution: spleen: 24.0497 % ID/g
  Organ distribution: stomach: 2.3704 % ID/g
  Organ distribution: tail: 8.0722 % ID/g
  Organ distribution: thyroids: 9.6295 % ID/g
  Organ distribution: urine: 5.0951 % ID/g
[3]
  Organ distribution: bladder: 1.9351 % ID/g
  Organ distribution: blood: 42.3521 % ID/g
  Organ distribution: bone (femur + joint): 3.4560 % ID/g
  Organ distribution: brain: 0.6755 % ID/g
  Organ distribution: feces: 0.4896 % ID/g
  Organ distribution: heart: 9.0992 % ID/g
  Organ distribution: kidneys: 14.2266 % ID/g
  Organ distribution: large intestines: 1.5716 % ID/g
  Organ distribution: liver: 24.1147 % ID/g
  Organ distribution: lungs: 14.4797 % ID/g
  Organ distribution: pancreas: 2.4405 % ID/g
  Organ distribution: small intestines: 2.0956 % ID/g
  Organ distribution: spleen: 25.4263 % ID/g
  Organ distribution: stomach: 2.4232 % ID/g
  Organ distribution: tail: 9.1381 % ID/g
  Organ distribution: thyroids: 3.5934 % ID/g
  Organ distribution: urine: 19.8282 % ID/g
[4]
  Organ distribution: bladder: 0.9047 % ID/g
  Organ distribution: blood: 20.8234 % ID/g
  Organ distribution: bone (femur + joint): 2.4707 % ID/g
  Organ distribution: brain: 0.2995 % ID/g
  Organ distribution: feces: 0.2189 % ID/g
  Organ distribution: heart: 4.4261 % ID/g
  Organ distribution: kidneys: 7.2170 % ID/g
  Organ distribution: large intestines: 0.6035 % ID/g
  Organ distribution: liver: 39.8269 % ID/g
  Organ distribution: lungs: 8.2412 % ID/g
  Organ distribution: pancreas: 2.1771 % ID/g
  Organ distribution: small intestines: 1.5594 % ID/g
  Organ distribution: spleen: 34.8831 % ID/g
  Organ distribution: stomach: 1.6211 % ID/g
  Organ distribution: tail: 5.7939 % ID/g
  Organ distribution: thyroids: 2.5988 % ID/g
  Organ distribution: urine: 4.5194 % ID/g
[5]
  Organ distribution: bladder: 0.8092 % ID/g
  Organ distribution: blood: 21.4460 % ID/g
  Organ distribution: bone (femur + joint): 2.7705 % ID/g
  Organ distribution: brain: 0.3247 % ID/g
  Organ distribution: feces: 0.3300 % ID/g
  Organ distribution: heart: 4.5832 % ID/g
  Organ distribution: kidneys: 6.8770 % ID/g
  Organ distribution: large intestines: 0.5629 % ID/g
  Organ distribution: liver: 41.0995 % ID/g
  Organ distribution: lungs: 8.4426 % ID/g
  Organ distribution: pancreas: 2.1579 % ID/g
  Organ distribution: small intestines: 1.5192 % ID/g
  Organ distribution: spleen: 37.1540 % ID/g
  Organ distribution: stomach: 1.5867 % ID/g
  Organ distribution: tail: 6.4201 % ID/g
  Organ distribution: thyroids: 5.7426 % ID/g
  Organ distribution: urine: 7.0564 % ID/g
[6]
  Organ distribution: bladder: 2.2929 % ID/g
  Organ distribution: blood: 11.3736 % ID/g
  Organ distribution: bone (femur + joint): 2.7213 % ID/g
  Organ distribution: brain: 0.4402 % ID/g
  Organ distribution: feces: 0.1122 % ID/g
  Organ distribution: heart: 3.3464 % ID/g
  Organ distribution: kidneys: 6.2070 % ID/g
  Organ distribution: large intestines: 0.4366 % ID/g
  Organ distribution: liver: 23.6180 % ID/g
  Organ distribution: lungs: 5.2078 % ID/g
  Organ distribution: pancreas: 1.8508 % ID/g
  Organ distribution: small intestines: 3.5548 % ID/g
  Organ distribution: spleen: 38.1082 % ID/g
  Organ distribution: stomach: 2.3350 % ID/g
  Organ distribution: tail: 9.0877 % ID/g
  Organ distribution: thyroids: 0.0000 % ID/g
  Organ distribution: urine: 104.9103 % ID/g
[7]
  Organ distribution: bladder: 1.4947 % ID/g
  Organ distribution: blood: 1.9886 % ID/g
  Organ distribution: bone (femur + joint): 3.5460 % ID/g
  Organ distribution: brain: 0.0452 % ID/g
  Organ distribution: feces: 0.9445 % ID/g
  Organ distribution: heart: 1.3450 % ID/g
  Organ distribution: kidneys: 4.6910 % ID/g
  Organ distribution: large intestines: 0.6479 % ID/g
  Organ distribution: liver: 59.8156 % ID/g
  Organ distribution: lungs: 4.1871 % ID/g
  Organ distribution: pancreas: 0.4874 % ID/g
  Organ distribution: small intestines: 1.3704 % ID/g
  Organ distribution: spleen: 62.9614 % ID/g
  Organ distribution: stomach: 2.6131 % ID/g
  Organ distribution: tail: 23.4055 % ID/g
  Organ distribution: thyroids: −2.7052 % ID/g
  Organ distribution: urine: 4.8267 % ID/g
[8]
  Organ distribution: bladder: 1.5234 % ID/g
  Organ distribution: blood: 2.0018 % ID/g
  Organ distribution: bone (femur + joint): 3.8533 % ID/g
  Organ distribution: brain: 0.0290 % ID/g
  Organ distribution: feces: 1.0201 % ID/g
  Organ distribution: heart: 1.3948 % ID/g
  Organ distribution: kidneys: 3.8752 % ID/g
  Organ distribution: large intestines: 0.6744 % ID/g
  Organ distribution: liver: 62.0765 % ID/g
  Organ distribution: lungs: 4.3379 % ID/g
  Organ distribution: pancreas: 0.4455 % ID/g
  Organ distribution: small intestines: 1.2201 % ID/g
  Organ distribution: spleen: 65.9117 % ID/g
  Organ distribution: stomach: 2.5322 % ID/g
  Organ distribution: tail: 25.4744 % ID/g
  Organ distribution: thyroids: −4.6044 % ID/g
  Organ distribution: urine: 3.3142 % ID/g
[9]
  Organ distribution: bladder: 3.4975 % ID/g
  Organ distribution: blood: 2.1769 % ID/g
  Organ distribution: bone (femur + joint): 3.5851 % ID/g
  Organ distribution: brain: 0.0430 % ID/g
  Organ distribution: feces: 0.8535 % ID/g
  Organ distribution: heart: 1.2018 % ID/g
  Organ distribution: kidneys: 4.2061 % ID/g
  Organ distribution: large intestines: 1.0259 % ID/g
  Organ distribution: liver: 54.1727 % ID/g
  Organ distribution: lungs: 5.4923 % ID/g
  Organ distribution: pancreas: 0.4643 % ID/g
  Organ distribution: small intestines: 1.2922 % ID/g
  Organ distribution: spleen: 62.2357 % ID/g
  Organ distribution: stomach: 2.0358 % ID/g
  Organ distribution: tail: 28.4443 % ID/g
  Organ distribution: thyroids: −0.4455 % ID/g
  Organ distribution: urine: 5.8548 % ID/g
[10]
  blood clearance and excretion (in words): slow blood clearance and excretion
  organ accumulation (in words): large accumulation in the liver and spleen

Source: patent publication US20220016277A1, “MACROCYCLIC COMPLEXES OF RADIONUCLIDES AND THEIR USE IN RADIOTHERAPY OF CANCER” (Cornell University, priority 2018, published 2022)
